Results from paper PMC12203697, “Bioactive constituents from the edible seaweed Halymenia hawaiiana (Rhodophyta)” (Pharmaceutical Biology, 2025).
Read-outs that look alike come from different tables or passages of the source.

Assays:
[1] = test system: ROS/RNS generation in RAW 264.7 cells; experiment: Intracellular ROS/RNS levels in LPS-induced RAW 264.7 cells (H2DCF-DA); format: cell-based; conditions: Mus musculus
Protocol: To measure the formation of intracellular ROS and RNS, we utilized the fluorogenic dye 2′,7′-dichlorodihydrofluorescein diacetate (Cat. No. 4091-99-0, H2DCF-DA, Abcam, Boston, MA, USA). This dye detects hydrogen peroxide, peroxyl radicals, and peroxynitrite anions (Kwon et al. [2019]). In brief, RAW 264.7 cells were seeded into a black 96-well plate (Cat. No. 165305, Thermo Fisher, USA) at 4 × 10^4 cells per well and incubated for 24 hr at 37 °C in 5% CO2. Afterward, the cells were treated with or without a sample for 4 hr before adding 1 μg/mL LPS (Cat. No. 00-4976-93, Thermo Fisher, USA) for 20 hr. Once this incubation was complete, the cells were washed twice with fetal bovine serum (FBS)-free media (Cat. No. A5256701, Thermo Fisher, USA) and stained with 10 μM H2DCF-DA (Cat. No. D399, Thermo Fisher, USA) in FBS-free media for 30 min at 37 °C, protected from light. Next, the dye-containing media was discarded, and the cells were washed twice with fresh serum-free media. The relative fluorescent intensity of the cells was measured using a fluorescence plate reader (Synergy H1, BioTeK, Winooski, VT, USA) with excitation/emission at 485 nm/535 nm. Curcumin (Cat. No. C1386-5G, Millipore Sigma, Burlington, MA, USA), a natural phenolic compound with antioxidant activity, was used as positive control. All samples were tested in triplicates. A sulforhodamine B (SRB) assay was conducted to assess cellular viability under a similar experimental setup. The final percentage of inhibition of ROS/RNS generation was calibrated using the % of cell viability.

[2] = Ferric-reducing antioxidant power (FRAP) assay
Protocol: The FRAP assay was used to evaluate antioxidant activity based on the ability of the sample to reduce Fe^3+-TPTZ (2,4,6-tris(2-pyridyl)-S-triazine) to Fe^2+-TPTZ (Benzie and Strain [1996]). This reduction results in a color change from colorless to blue. The absorbance was measured at 593 nm using a Microplate Reader (BioTek ELx800 Instruments Inc. Winooski, Vermont, USA) with the Gen 5 software for FRAP value calculations. A ferrous sulfate heptahydrate (FeSO4 · 7H2O) (Cat. No. 215422, Sigma-Aldrich, USA) standard curve, ranging from 1000 µM to 50 µM, was prepared for the assay. The FRAP reagent consists of 300 mM sodium acetate buffer (pH 3.6) (Cat. No. 90358, Sigma-Aldrich, USA), 10 mM TPTZ solution (Cat. No. T1253, Sigma-Aldrich, USA), and 20 mM ferric (III) chloride hexahydrate (FeCl3 · 6H2O) (Cat. No. 236489, Sigma-Aldrich, USA) in a 10:1:1 ratio, respectively, and heated to 37 °C for ten minutes before use. A blank was measured at 593 nm with 150 µL FRAP reagent added to each well of a 96-well microtiter plate. Samples (20 µL of each sample) (1, 0.5, 0.25 mg/mL) and ascorbic acid (Sigma-Aldrich, Cat. No. A4403) positive control (1 mg/mL) were added in triplicates. Reducing capacity was expressed by FRAP values in an µM FeSO4/µg sample unit.

[3] = RAW264.7, read-out: IC50, inhibition of LPS-induced ROS/RNS generation

Compound	IC50 [1, 3]	FRAP ([2]; FeSO4 standard curve)	FRAP ([2]; µM FeSO4/µg sample)	IC50 ([1]; RAW264.7, RAW 264.7 cells, H2DCF-DA dye, LPS 1 μg/mL, read-out: IC50, inhibition of LPS-induced ROS/RNS generation)
CC(C)CCC[C@@H](C)[C@H]1CCC2[C@@]34C=C[C@]5(C[C@@H](O)CC[C@]5(C)C3CC[C@@]21C)OO4 (stereo partly drawn) [Compound 10, 7-dehydrochoresterol peroxide]	65 ± 4.8 µM	204.07 µM	2.55 ± 0.02 µM/µg	
CC(C)CCC[C@@H](C)[C@H]1CCC2[C@]1(C)CC=C1[C@]23C=C[C@]2(C[C@@H](O)CC[C@]12C)OO3 (stereo partly drawn) [Compound 11, (3β-5α-8α)5,8-epidioxycholesta-6,9(1)-diene-3-ol]	73.7 ± 6.2 µM			
Nc1ccn([C@H]2C[C@H](O)[C@@H](CO)O2)c(=O)n1 [Compound 1, deoxycytidine]			0.41 ± 0.03 µM/µg	
CC(C)CCC[C@@H](C)[C@H]1CC[C@H]2[C@@H]3CC=C4C[C@@H](O)CC[C@]4(C)[C@H]3CC[C@]12C [Compound 9, cholesterol]				55 ± 4.1 µM
